Data from patent US20050112573A1, “Method of detecting toxic substance” (priority 2001, published 2005).

Test system: yeast genes (level of expressed mRNA)
Assay: DNA chip analysis of expressed mRNA of yeast genes after 2 h culture with a toxic chemical substance
Assay type: cell-based, Saccharomyces cerevisiae S288C
Conditions: for The level of expressed mRNA in the presence of chemical substance/ (ratio to absence of chemical substance): stress protein genes, DNA chip
Method: Yeast (Saccharomyces cerevtisiae S288C (α SUC2mal mel gap2 CUP1)) were cultured at 25° C. on YPD medium (yeast extract 1%, polypepton 2%, glucose 2%). One of toxic chemical substances was added to the cell at logarithmic growth phase, and the cell was further cultured for two hours. Cell was cultured without any chemical substance in the same condition, and was used as control. Concentrations of the chemical substances were defined to inhibit the growth of the yeast but not lead to death.
After the completion of cultivation, the culture was centrifuged to collect the cells. To the cells, sodium acetate buffer (50 mM sodium acetate, 10 mM EDTA, 1% SDS) was added, and the mixture was shaken at 65° C. for five minutes, followed by returning to room temperature, and obtaining the supernatant, which procedure was repeated two times. To the supernatant, ½ amount of a solution of phenol/chloroform was added, and the mixture was centrifuged to give a supernatant, which was added with an equal amount of chloroform, and the mixture was centrifuged to give a supernatant. To the supernatant, an equal amount of isopropanol containing 0.3 M sodium acetate was added, and the mixture was allowed to stand at room temperature for 30 minutes, after which the mixture was centrifuged to give a sediment of the whole RNAs. Seventy % ethanol was added to the sediment, and the mixture was again centrifuged to give a sediment, which was then dried and dissolved in water. mRNA was isolated from the whole RNAs as followings. In view of the fact that a poly A chain is attached to the 3′ terminus of mRNA, a polynucleotide having a poly T structure which was immobilized on the surface of latex beads was used to trap the mRNA, and then the mRNA was washed and eluted with spine column (Oligotex-dT30<Super>mRNA Purification Kit, Takara). Reverse transcription of the mRNA was conducted with a reverse transcriptase (Super Script II Reverse Transcriptase; catalogue No. 18064-014, GibcoBRL) using fluorescence-labeled nucleotides to give cDNAs that were introduced with Cy3-dUTP or Cy5-dUTP during the reverse transcription.
The labeled cDNAs were dissolved in TE buffer (10 mM Tris-HCl/1 mM EDTA, pH8.0), and the solution was dropped on the DNA chip containing the whole genes of yeast (DNA Chip Research Inc. Japan) so that the cDNAs were hybridized on the DNA chip at 65° C. for over 12 hours. The fluoresces intensity of the DNA chip was read with a scanner, and the ratio relative to the fluorescence intensity resulting from the absence of chemical substance was estimated as the following, which is shown in Tables 1 to 9: [formula]
In the Tables, “Intensity” indicated in the rightmost column is a value of the level of expressed mRNA of each gene in control cells as divided by the average level of the expressions of the whole genes.

COc1cc(CNC(=O)CCCCC=CC(C)C)ccc1O [(12), 8-methyl-N-vanillyl-6-nonenamide]
1.6: The level of expressed mRNA in the presence of chemical substance/The level of expressed mRNA in the absence of chemical substance (yeast gene YDR085C) | The level of expressed mRNA in the presence of chemical substance/The level of expressed mRNA in the absence of chemical substance (yeast gene YHR139C)
0.6: The level of expressed mRNA in the presence of chemical substance/The level of expressed mRNA in the absence of chemical substance (yeast gene YDR315C) | The level of expressed mRNA in the presence of chemical substance/ (ratio to absence of chemical substance) (yeast gene YEL039C) | The level of expressed mRNA in the presence of chemical substance/ (ratio to absence of chemical substance) (yeast gene YIL011W)
1.4: The level of expressed mRNA in the presence of chemical substance/The level of expressed mRNA in the absence of chemical substance (yeast gene YDR510W)
1.5: The level of expressed mRNA in the presence of chemical substance/ (ratio to absence of chemical substance) (yeast gene YER057C) | The level of expressed mRNA in the presence of chemical substance/The level of expressed mRNA in the absence of chemical substance (yeast gene YFR024C) | The level of expressed mRNA in the presence of chemical substance/ (ratio to absence of chemical substance) (yeast gene YHL028W)
0.9: The level of expressed mRNA in the presence of chemical substance/The level of expressed mRNA in the absence of chemical substance (yeast gene YDR115W) | The level of expressed mRNA in the presence of chemical substance/ (ratio to absence), gene YDR377W (yeast gene YDR377W, mitochondria-located protein genes, 2 h culture with chemical) | The level of expressed mRNA in the presence of chemical substance/ (in its absence), gene YDR387C (yeast gene YDR387C, ratio of DNA chip fluorescence intensity to that without chemical substance) | The level of expressed mRNA in the presence of chemical substance/The level of expressed mRNA in the absence of chemical substance (yeast gene YDR481C) | The level of expressed mRNA in the presence of chemical substance/ (in its absence), gene YER015W (yeast gene YER015W, ratio of DNA chip fluorescence intensity to that without chemical substance) | The level of expressed mRNA in the presence of chemical substance/The level of expressed mRNA in the absence of chemical substance (yeast gene YER039C) | The level of expressed mRNA in the presence of chemical substance/The level of expressed mRNA in the absence of chemical substance (yeast gene YFL043C) | The level of expressed mRNA in the presence of chemical substance/ (in its absence), gene YGL035C (yeast gene YGL035C, ratio of DNA chip fluorescence intensity to that without chemical substance) | The level of expressed mRNA in the presence of chemical substance/ (in its absence), gene YGL115W (yeast gene YGL115W, ratio of DNA chip fluorescence intensity to that without chemical substance) | The level of expressed mRNA in the presence of chemical substance/ (ratio to absence of chemical substance) (yeast gene YGL115W) | The level of expressed mRNA in the presence of chemical substance/The level of expressed mRNA in the absence of chemical substance (yeast gene YGR257C) | The level of expressed mRNA in the presence of chemical substance/ (in its absence), gene YGR288W (yeast gene YGR288W, ratio of DNA chip fluorescence intensity to that without chemical substance) | The level of expressed mRNA in the presence of chemical substance/The level of expressed mRNA in the absence of chemical substance (yeast gene YHR004C) | The level of expressed mRNA in the presence of chemical substance/ (in its absence), gene YIL006W (yeast gene YIL006W, ratio of DNA chip fluorescence intensity to that without chemical substance)
0.7: The level of expressed mRNA in the presence of chemical substance/The level of expressed mRNA in the absence of chemical substance (yeast gene YDR084C) | The level of expressed mRNA in the presence of chemical substance/The level of expressed mRNA in the absence of chemical substance (yeast gene YDR432W) | The level of expressed mRNA in the presence of chemical substance/The level of expressed mRNA in the absence of chemical substance (yeast gene YER107C)
1.1: The level of expressed mRNA in the presence of chemical substance/ in its absence, gene YDR079W (yeast gene YDR079W, energy system protein genes, 2 h culture with the chemical, ratio to control without chemical) | The level of expressed mRNA in the presence of chemical substance/ (ratio to absence), gene YDR079W (yeast gene YDR079W, mitochondria-located protein genes, 2 h culture with chemical) | The level of expressed mRNA in the presence of chemical substance/The level of expressed mRNA in the absence of chemical substance (yeast gene YDR104C) | The level of expressed mRNA in the presence of chemical substance/The level of expressed mRNA in the absence of chemical substance (yeast gene YDR358W) | The level of expressed mRNA in the presence of chemical substance/The level of expressed mRNA in the absence of chemical substance (yeast gene YFL028C) | The level of expressed mRNA in the presence of chemical substance/ (in its absence), gene YGL205W (yeast gene YGL205W, ratio of DNA chip fluorescence intensity to that without chemical substance) | The level of expressed mRNA in the presence of chemical substance/The level of expressed mRNA in the absence of chemical substance (yeast gene YGL229C) | The level of expressed mRNA in the presence of chemical substance/ (in its absence), gene YGR287C (yeast gene YGR287C, ratio of DNA chip fluorescence intensity to that without chemical substance) | The level of expressed mRNA in the presence of chemical substance/ (ratio to absence of chemical substance) (yeast gene YHL046C)
3.9: The level of expressed mRNA in the presence of chemical substance/The level of expressed mRNA in the absence of chemical substance (yeast gene YDR406W)
2.4: The level of expressed mRNA in the presence of chemical substance/The level of expressed mRNA in the absence of chemical substance (yeast gene YGR281W)
10.6: The level of expressed mRNA in the presence of chemical substance/The level of expressed mRNA in the absence of chemical substance (yeast gene YGR213C)
2.0: The level of expressed mRNA in the presence of chemical substance/The level of expressed mRNA in the absence of chemical substance (yeast gene YGR008C, two hours culture)
1.0: The level of expressed mRNA in the presence of chemical substance/The level of expressed mRNA in the absence of chemical substance (yeast gene YDR259C) | The level of expressed mRNA in the presence of chemical substance/ (in its absence), gene YDR297W (yeast gene YDR297W, ratio of DNA chip fluorescence intensity to that without chemical substance) | The level of expressed mRNA in the presence of chemical substance/The level of expressed mRNA in the absence of chemical substance (yeast gene YEL042W) | The level of expressed mRNA in the presence of chemical substance/The level of expressed mRNA in the absence of chemical substance (yeast gene YER130C) | The level of expressed mRNA in the presence of chemical substance/ in its absence, gene YGR062C (yeast gene YGR062C, energy system protein genes, 2 h culture with the chemical, ratio to control without chemical) | The level of expressed mRNA in the presence of chemical substance/ (ratio to absence), gene YGR062C (yeast gene YGR062C, mitochondria-located protein genes, 2 h culture with chemical)
1.2: The level of expressed mRNA in the presence of chemical substance/The level of expressed mRNA in the absence of chemical substance (yeast gene YGR136W)
0.5: The level of expressed mRNA in the presence of chemical substance/ (in its absence), gene YHR210C (yeast gene YHR210C, ratio of DNA chip fluorescence intensity to that without chemical substance)
0.8: The level of expressed mRNA in the presence of chemical substance/ (in its absence), gene YDR073W (yeast gene YDR073W, ratio of DNA chip fluorescence intensity to that without chemical substance) | The level of expressed mRNA in the presence of chemical substance/The level of expressed mRNA in the absence of chemical substance (yeast gene YDR388W) | The level of expressed mRNA in the presence of chemical substance/The level of expressed mRNA in the absence of chemical substance (yeast gene YEL066W) | The level of expressed mRNA in the presence of chemical substance/ (ratio to absence), gene YGL187C (yeast gene YGL187C, mitochondria-located protein genes, 2 h culture with chemical) | The level of expressed mRNA in the presence of chemical substance/ (in its absence), gene YGR096W (yeast gene YGR096W, ratio of DNA chip fluorescence intensity to that without chemical substance) | The level of expressed mRNA in the presence of chemical substance/The level of expressed mRNA in the absence of chemical substance (yeast gene YHR071W)
2.6: The level of expressed mRNA in the presence of chemical substance/The level of expressed mRNA in the absence of chemical substance (yeast gene YHL047C)
0.4: The level of expressed mRNA in the presence of chemical substance/The level of expressed mRNA in the absence of chemical substance (yeast gene YFR015C, two hours culture)
1.3: The level of expressed mRNA in the presence of chemical substance/The level of expressed mRNA in the absence of chemical substance (yeast gene YGL158W) | The level of expressed mRNA in the presence of chemical substance/The level of expressed mRNA in the absence of chemical substance (yeast gene YGR189C) | The level of expressed mRNA in the presence of chemical substance/The level of expressed mRNA in the absence of chemical substance (yeast gene YHR142W)
